Source: patent US20250275993A1, “GLYCOSYLATION INHIBITORS AS THERAPEUTICS FOR STROKE” (The Regents of the University of California, priority 2022, published 2025)

Legend:
[1] = tested on: dermal microvascular endothelial cells (hDMVECs); experiment: hDMVEC proliferation assay; type: cell-based, human
Description: Proliferation assays with BCECs and BRECs were performed. Log-phase growing BCECs or BRECs (passage <10) were trypsinized, re-suspended and seeded in 96-well plates (no coating) in low-glucose DMEM supplemented with 10% bovine calf serum, 2 mM glutamine, and antibiotics (growth medium), at a density of 1200-1500 cells per well in 200 μl volume. All reagents were added at the indicated final concentrations. After 3-6 days, cells were incubated with AlamarBlue for 4 hrs. Fluorescence was measured at 530 nm excitation wavelength and 590 nm emission wavelength. The experiments were repeated at least three times. To create a hypoxic condition, cells were placed in a hypoxia incubator with a mixture of gas consisting of 1% O2, 5% CO2 and 94% N2. On each 96-well plate, untreated and VEGF-treated (10/ng/ml) wells were included to monitor plate-to-plate variations. 20% methanol or 0.05% DMSO served as negative controls. […] Human RMVECs and human adult DMVECs were split into Gelatin-coated 96 wells (2000 cells per well) in low glucose DMEM containing 10% FBS. 1200 cells/well was set up for proliferation assay in low glucose media containing 0.5% FBS. Data was collected at day 4 or 5. HUVEC (p7-10) were grown on gelatin-coated plate until it reached 70-80% confluency.
Proliferation assays with fibroblasts were done in low-glucose DMEM containing 1% FBS, with or without 10 ng/ml bFGF, or 100 ng/ml human EGF and the assay was ended at day 3. ARPE-19 cells were gently lifted with 0.025% trypsin and plated in RtEGM media (Clonetics) containing 2% FBS, L-glutamine, human bFGF and GA-1000. Once cells were attached to plates, serum-free RtEGM media was used to maintain the cultures. For proliferation assays, 1500 human RPE cells were plated into 96-well plates in low-glucose DMEM containing 1% FBS. A673, U87MG, Calu6 and AML12 cells were grown until confluent and were then harvested and re-suspended in appropriate assay media. […] Four days later, tumor cell growth was measured by the MTS assay (Promega, Madison, WI), a colorimetric assay that measures metabolic activity of viable cells. […]

HUVEC = HUVEC scratch assay; type: cell-based, human; details: 40 μM ManN in combination with 50 ng/ml VEGF
Description: BCECs (passage 6-10) and HUVEC (passage 6-8) were used in this assay.
Cells were grown until about 80% confluency in 6-well plates, washed twice with PBS and then starved in serum-free DMEM (low Glucose, Hyclone) for 5 hrs before making a “scratch” using 1 ml tip. Cell monolayers were briefly washed once with serum-free media, followed by various treatments in media containing 1% FBS. 48 hrs later, the assay was stopped by adding 2 ml 4% paraformaldehyde. 20 min later, fixed cells were stained with 1 ml Crystal Violet (Sigma). Plates were washed gently under the running tap water and air-dried before taking pictures. Images were acquired by ZEISS Discovery V8 SteREO microscopy equipped with PixeLINK Megapixel FireWire camera. Quantification of wound closure was done using AxioVision LE Rel.4.4 software. Six images were taken for each sample and six measurements (in pixel) were made on each image using AxioVision LE Re1.4.4 software.

VEGFR2 on cell surface = experiment: Biotinylation of surface proteins in BCECs; type: cell-based, bovine; details: ManN-treated BCECs
Description: BCECs were plated in 10 cm cell culture dishes 3 days prior to the cell surface protein isolation. Cells were washed three times with Dulbecco's PBS with CaCl2 and MgCl2, followed by a 30 min incubation with EZ-Link Sulfo-NHS-SS-Biotin (Pierce, Rockford, IL, USA; 0.5 mg/ml in Dulbecco) on ice. Cells were washed twice with Dulbecco and the non-reacted biotin was blocked with 20 mM glycine for 15 mins. To prevent the reduction of the disulfide bridge in the biotin molecule during the cell lysis process, a 100 μM oxidized glutathione (Sigma-Aldrich, St. Louis, MO) was added in the last wash solution. For cell lysis 500 μL of lysis buffer (2% NP-40, 1% Triton X-100, 10% glycerol, 100 μM oxidized glutathione, EDTA free protease inhibitor tablet (Roche, Mannheim, Germany) in PBS was added to the cells. Lysed cell extracts were scraped off the plates and transferred to an Eppendorf tube followed by incubation on ice on a shaker for 30 mins. The cell extracts were incubated with 30 U of DNase (22° C. 50 mins, Roche, Mannheim, Germany) and centrifuged for 20 mins (20,800×g, at 4° C.) to pellet the insoluble material. The protein concentration of the supernatants was determined. Equal amounts of protein (−2 mg) from each extract were used for cell surface protein isolation. […]

N[C@H](C=O)[C@@H](O)[C@H](O)[C@H](O)CO [ManN, 2-Amino-2-deoxy-D-mannose]
toxicity on hDMVECs ([1]; 5 mM ManN): minimal toxicity | hDMVECs growth, ManN by itself ([1]; ManN alone): stimulated | additivity with VEGF on hDMVEC proliferation ([1]; with VEGF): dose-dependent additivity with VEGF | HUVEC wound closure (HUVEC): stimulation of migration and wound closure | amount of VEGFR2 on cell surface (VEGFR2 on cell surface): no changes
